Experimental data taken from ChEMBL document CHEMBL4715878 (J Med Chem, 2020).
pIC50: −log10 of the molar value. Active and inactive are the calls of the source. No cut-off for these calls is given here.

Experiments:
BT-474 [1] = assay: Induction of apoptosis in human BT474 cells assessed as increase in late apoptotic cells at 0.5 to 5 uM incubated for 72 hrs by Annexin V-FITC/PI staining based flow cytometry analysis relative to control; format: functional; conditions: dose 0.5-5 µM
[2] = system: Panel NCI-60 (60 carcinoma cell lines); assay: Antiproliferative activity against human NCI60 cells assessed as lethality at 10 uM after 48 hrs by SRB assay relative to control; format: functional
[3] = biological target: T1, Receptor tyrosine-protein kinase erbB-2 (Homo sapiens, UniProt P04626); assay: Inhibition of HER2 in human BT474 cells assessed as reduction in Akt phosphorylation at 0.5 IC50 after 24 to 48 hrs by Western blot analysis; format: cell-based; conditions: BT-474, time 24-48 hrs
MDA-MB-468 [4] = assay: Antiproliferative activity against human MDA-MB-468 cells assessed as cell growth inhibition after 48 hrs by SRB assay; format: functional
BT-474 [5] = assay: Induction of apoptosis in human BT474 cells assessed as increase in early apoptotic cells at 0.5 to 5 uM incubated for 72 hrs by Annexin V-FITC/PI staining based flow cytometry analysis relative to control; format: functional; conditions: dose 0.5-5 µM
in vitro [6] = conditions: CD-1, mouse, liver microsomes
BT-474 [7] = assay: Antitumor activity against human BT474 cells xenografted in athymic nude mouse assessed as reduction in metastasis of cells at 50 mg/kg, po administered via oral gavage for 5 times per week for 55 days measured post-last dose; format: functional, organism-based; conditions: time 55.0 day
in vitro [8] = conditions: CD-1, mouse, liver microsomes; remark: listed apart in the source
[9] = biological target: Epidermal growth factor receptor (Homo sapiens, UniProt P00533); conditions: 0.5 h
Description: Effect on human EGFR in presence of substrate and [gamma-32ATP] at 10 uM incubated for 30 mins by scintillation counting based radiometry assay relative to control

[10] = Antiproliferative activity against human BC assessed as lethality at 10 uM after 48 hrs by SRB assay relative to control; format: functional
[11] = Antiproliferative activity against human BC assessed as cell growth inhibition at 10 uM after 48 hrs by SRB assay relative to control; format: functional; conditions: read-out: GI
MDA-MB-468 [12] = assay: Antiproliferative activity against human MDA-MB-468 cells assessed as cell growth inhibition at 10 uM after 48 hrs by SRB assay relative to control; format: functional; conditions: read-out: GI
[13] = biological target: Receptor tyrosine-protein kinase erbB-4 (Homo sapiens, UniProt Q15303); assay: Effect on human recombinant N-terminal GST-tagged HER4 (682 to 993) expressed in baculovirus infected Sf9 insect cells in presence of substrate and [gamma-32ATP] at 10 uM incubated for 30 mins by scintillation counting based radiometry assay relative to control; conditions: 0.5 h, read-out: Activity
[14] = biological target: T1, Receptor tyrosine-protein kinase erbB-2; conditions: Sf9, human, 0.5 h
BT-474 [15] = assay: Antitumor activity against human BT474 cells xenografted in athymic nude mouse assessed as tumor growth inhibition at 50 mg/kg, po administered via oral gavage for 5 times in a week for 55 days measured post last dose; format: functional, organism-based; conditions: time 55.0 day
BT-474 [16] = assay: Antitumor activity against human BT474 cells xenografted in athymic nude mouse assessed as inflammation in tumors at 50 mg/kg, po administered via oral gavage for 5 times per week for 55 days measured post-last dose by H and E staining based immunohistochemical analysis; format: functional, organism-based; conditions: time 55.0 day
[17] = biological target: T1, Receptor tyrosine-protein kinase erbB-2; assay: Inhibition of HER2 in human BT474 cells assessed as reduction in Akt phosphorylation at 0.1 IC50 after 24 to 48 hrs by Western blot analysis; format: cell-based; conditions: BT-474, time 24-48 hrs
[18] = biological target: Platelet-derived growth factor receptor alpha (Homo sapiens, UniProt P16234); assay: Effect on human recombinant N-terminal GST-tagged PDGFRalpha (550 to end residues) expressed in baculovirus infected Sf9 insect cells in presence of substrate and [gamma-32ATP] at 10 uM incubated for 30 mins by scintillation counting based radiometry assay relative to control; conditions: 0.5 h, read-out: Activity
BT-474 [19] = assay: Antitumor activity against human BT474 cells xenografted in athymic nude mouse assessed as suppression of tumor growth by measuring decrease in number of Ki67 positive cells at 50 mg/kg, po administered via oral gavage for 5 times per week for 55 days measured post-last dose by Ki67-staining based immunohistochemistry; format: functional, organism-based; conditions: time 55.0 day
[20] = biological target: T1, Receptor tyrosine-protein kinase erbB-2; assay: Inhibition of wild-type HER2 (unknown origin) at 0.5 nM in presence of substrate incubated for 30 mins by ADP-Glo assay relative to control
BT-474 [21] = assay: Antiproliferative activity against human BT474 cells assessed as reduction in cell viability incubated for 72 hrs by WST8 assay; format: functional, cell-based; conditions: BT-474, 72 h
[22] = biological target: T1, Receptor tyrosine-protein kinase erbB-2; assay: Inhibition of HER2 in human BT474 cells assessed as reduction in Erk1/2 phosphorylation at 0.1 IC50 incubated for 24 to 48 hrs by western blot analysis; format: cell-based; conditions: BT-474, time 24-48 hrs
[23] = biological target: T1, Receptor tyrosine-protein kinase erbB-2; assay: Inhibition of HER2 in human BT474 cells assessed as reduction in Akt phosphorylation at 0.1 IC50 incubated for 24 to 48 hrs by western blot analysis; format: cell-based; conditions: BT-474, time 24-48 hrs
in vitro [24] = conditions: CD-1, mouse, liver microsomes; remark: listed apart in the source
Description: Metabolic stability in CD-1 mouse liver microsomes assessed as parent compound remaining at 100 uM measured after 60 mins by LC-MS/MS analysis

[25] = biological target: T1, Receptor tyrosine-protein kinase erbB-2; assay: Inhibition of HER2 in human BT474 cells assessed as reduction in Erk1/2 phosphorylation at 0.5 IC50 incubated for 24 to 48 hrs by western blot analysis; format: cell-based; conditions: BT-474, time 24-48 hrs
in vitro [26] = conditions: CD-1, mouse, microsomes
BT-474 [27] = assay: Down regulation of HER2 expression in human BT474 cells at 0.1 IC50 after 24 to 48 hrs by Western blot analysis; format: functional, cell-based; conditions: time 24-48 hrs
AU565 = assay: Antiproliferative activity against human AU565 cells assessed as reduction in cell viability incubated for 72 hrs by WST8 assay; format: functional, cell-based; conditions: AU565, 72 h
[28] = biological target: T1, Receptor tyrosine-protein kinase erbB-2; assay: Inhibition of HER2 in human BT474 cells assessed as reduction in Akt phosphorylation at 0.5 IC50 incubated for 24 to 48 hrs by western blot analysis; format: cell-based; conditions: BT-474, time 24-48 hrs
[29] = biological target: T1, Receptor tyrosine-protein kinase erbB-2; assay: Inhibition of HER2 (unknown origin) in presence of substrate incubated for 30 mins by ADP-Glo assay
MDA-MB-231 = assay: Antiproliferative activity against human MDA-MB-231 cells assessed as reduction in cell viability incubated for 72 hrs by WST8 assay; format: functional, cell-based; conditions: MDA-MB-231, 72 h
BT-474 [30] = assay: Antitumor activity against human BT474 cells xenografted in athymic nude mouse assessed as appearance of tumor fibrosis at 50 mg/kg, po administered via oral gavage for 5 times in a week for 55 days measured post-last dose by H and E staining based immunohistochemical analysis; format: functional, organism-based; conditions: time 55.0 day
BT-474 [31] = assay: Induction of apoptosis in human BT474 cells assessed as increase in early apoptotic cells incubated for 72 hrs by Annexin V-FITC/PI staining based flow cytometry analysis; format: functional, cell-based; conditions: dose 0.1-5 µM
MDA-MB-468 [32] = assay: Antiproliferative activity against human MDA-MB-468 cells assessed as lethality at 10 uM after 48 hrs by SRB assay relative to control; format: functional
[33] = Antiproliferative activity against human MDA-MB-231 cells assessed as lethality at 10 uM after 48 hrs by SRB assay relative to control; format: functional, MDA-MB-23
BT-474 [34] = assay: Antitumor activity against human BT474 cells xenografted in athymic nude mouse assessed as tumor weight at 50 mg/kg, po administered via oral gavage for 5 times in a week for 55 days measured post last dose (reference value: 2.046 g); format: functional; conditions: time 55 day
BT-474 [35] = assay: Antitumor activity against human BT474 cells xenografted in athymic nude mouse assessed as tumor necrosis at 50 mg/kg, po administered via oral gavage for 5 times in a week for 55 days measured post-last dose by H and E staining based immunohistochemical analysis; format: functional, organism-based; conditions: time 55.0 day
BT-474 [36] = assay: Down regulation of HER2 expression in human BT474 cells at 0.5 IC50 after 24 to 48 hrs by Western blot analysis; format: functional, cell-based; conditions: time 24-48 hrs
MCF7 [37] = assay: Antiproliferative activity against human MCF7 cells assessed as reduction in cell viability incubated for 72 hrs by WST8 assay; format: functional, cell-based; conditions: MCF7, 72 h
[38] = system: Panel NCI-60 (60 carcinoma cell lines); assay: Antiproliferative activity against human NCI60 cells assessed as mean cell growth at 10 uM after 48 hrs by SRB assay relative to control; format: functional
MCF7 [39] = assay: Antiproliferative activity against human MCF7 cells assessed as lethality at 10 uM after 48 hrs by SRB assay relative to control; format: functional
in vitro [40] = conditions: CD-1, mouse, liver microsomes; remark: listed apart in the source
Description: Metabolic stability in CD-1 mouse liver microsomes assessed as parent compound remaining at 100 uM measured after 60 mins in presence of NADPH by LC-MS/MS analysis

T1 sequence (P04626 whole entry): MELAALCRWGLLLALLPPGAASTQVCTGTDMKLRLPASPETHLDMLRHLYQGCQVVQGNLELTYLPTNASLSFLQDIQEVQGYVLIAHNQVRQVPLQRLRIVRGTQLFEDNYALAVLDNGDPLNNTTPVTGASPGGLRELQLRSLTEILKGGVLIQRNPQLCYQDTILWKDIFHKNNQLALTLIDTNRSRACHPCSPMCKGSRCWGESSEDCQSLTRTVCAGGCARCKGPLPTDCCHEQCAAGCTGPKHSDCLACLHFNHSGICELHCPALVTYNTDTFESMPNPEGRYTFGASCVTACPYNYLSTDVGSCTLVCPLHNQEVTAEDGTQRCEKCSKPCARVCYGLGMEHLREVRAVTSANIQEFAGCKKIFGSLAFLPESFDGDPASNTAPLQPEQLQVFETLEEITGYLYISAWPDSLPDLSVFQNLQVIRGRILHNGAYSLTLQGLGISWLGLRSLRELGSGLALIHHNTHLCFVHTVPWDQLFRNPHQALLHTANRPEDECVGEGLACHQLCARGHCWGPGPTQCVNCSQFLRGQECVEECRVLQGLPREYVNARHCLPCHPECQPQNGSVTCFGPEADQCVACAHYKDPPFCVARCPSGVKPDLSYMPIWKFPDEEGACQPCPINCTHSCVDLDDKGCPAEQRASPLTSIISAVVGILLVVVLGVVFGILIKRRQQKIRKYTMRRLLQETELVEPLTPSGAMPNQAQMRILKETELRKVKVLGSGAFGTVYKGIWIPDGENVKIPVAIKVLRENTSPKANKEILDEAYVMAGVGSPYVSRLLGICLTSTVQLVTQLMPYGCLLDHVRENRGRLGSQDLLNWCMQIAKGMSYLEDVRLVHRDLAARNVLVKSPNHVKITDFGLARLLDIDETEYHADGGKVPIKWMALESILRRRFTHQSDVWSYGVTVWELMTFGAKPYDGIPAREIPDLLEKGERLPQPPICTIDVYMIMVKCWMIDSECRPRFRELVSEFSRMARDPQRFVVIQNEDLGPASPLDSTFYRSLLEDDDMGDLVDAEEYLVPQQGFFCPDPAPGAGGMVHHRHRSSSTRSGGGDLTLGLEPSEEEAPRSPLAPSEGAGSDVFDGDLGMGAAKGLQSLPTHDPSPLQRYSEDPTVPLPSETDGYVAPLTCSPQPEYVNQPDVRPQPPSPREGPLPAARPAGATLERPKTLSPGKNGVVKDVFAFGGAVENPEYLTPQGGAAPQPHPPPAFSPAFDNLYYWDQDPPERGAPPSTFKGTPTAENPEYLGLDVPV
Sequence of Epidermal growth factor receptor (P00533 whole entry): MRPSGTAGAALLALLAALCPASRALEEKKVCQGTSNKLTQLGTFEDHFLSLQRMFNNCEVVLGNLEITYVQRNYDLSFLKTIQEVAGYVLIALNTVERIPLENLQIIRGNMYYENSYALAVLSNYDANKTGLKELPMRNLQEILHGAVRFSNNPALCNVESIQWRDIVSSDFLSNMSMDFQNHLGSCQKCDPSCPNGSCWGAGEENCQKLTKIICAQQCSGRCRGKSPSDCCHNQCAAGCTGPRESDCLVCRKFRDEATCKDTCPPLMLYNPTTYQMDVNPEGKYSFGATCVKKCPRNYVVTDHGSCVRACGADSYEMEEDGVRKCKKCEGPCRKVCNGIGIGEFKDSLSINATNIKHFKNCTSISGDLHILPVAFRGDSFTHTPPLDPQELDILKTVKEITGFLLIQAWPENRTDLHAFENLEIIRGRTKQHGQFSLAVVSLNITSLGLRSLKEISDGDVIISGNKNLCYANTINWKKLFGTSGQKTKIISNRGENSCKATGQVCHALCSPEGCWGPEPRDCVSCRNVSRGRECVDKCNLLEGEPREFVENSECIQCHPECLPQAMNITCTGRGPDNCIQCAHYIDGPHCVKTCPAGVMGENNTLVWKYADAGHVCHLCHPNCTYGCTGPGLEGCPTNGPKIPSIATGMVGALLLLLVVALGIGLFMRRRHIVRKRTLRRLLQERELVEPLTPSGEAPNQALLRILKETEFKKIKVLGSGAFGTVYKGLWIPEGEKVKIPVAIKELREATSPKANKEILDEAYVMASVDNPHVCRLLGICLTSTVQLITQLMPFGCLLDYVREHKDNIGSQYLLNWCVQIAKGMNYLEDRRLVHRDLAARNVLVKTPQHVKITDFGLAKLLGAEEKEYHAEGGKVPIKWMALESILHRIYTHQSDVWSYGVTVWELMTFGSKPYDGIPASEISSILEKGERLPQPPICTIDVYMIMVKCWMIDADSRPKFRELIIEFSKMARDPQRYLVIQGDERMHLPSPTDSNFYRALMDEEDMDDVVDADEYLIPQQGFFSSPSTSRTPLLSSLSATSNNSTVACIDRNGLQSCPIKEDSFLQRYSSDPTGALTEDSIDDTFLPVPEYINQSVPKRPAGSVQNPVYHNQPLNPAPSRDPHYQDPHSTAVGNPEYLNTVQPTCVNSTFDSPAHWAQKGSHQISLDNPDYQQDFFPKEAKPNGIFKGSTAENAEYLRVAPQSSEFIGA
Sequence of Platelet-derived growth factor receptor alpha (P16234 whole entry): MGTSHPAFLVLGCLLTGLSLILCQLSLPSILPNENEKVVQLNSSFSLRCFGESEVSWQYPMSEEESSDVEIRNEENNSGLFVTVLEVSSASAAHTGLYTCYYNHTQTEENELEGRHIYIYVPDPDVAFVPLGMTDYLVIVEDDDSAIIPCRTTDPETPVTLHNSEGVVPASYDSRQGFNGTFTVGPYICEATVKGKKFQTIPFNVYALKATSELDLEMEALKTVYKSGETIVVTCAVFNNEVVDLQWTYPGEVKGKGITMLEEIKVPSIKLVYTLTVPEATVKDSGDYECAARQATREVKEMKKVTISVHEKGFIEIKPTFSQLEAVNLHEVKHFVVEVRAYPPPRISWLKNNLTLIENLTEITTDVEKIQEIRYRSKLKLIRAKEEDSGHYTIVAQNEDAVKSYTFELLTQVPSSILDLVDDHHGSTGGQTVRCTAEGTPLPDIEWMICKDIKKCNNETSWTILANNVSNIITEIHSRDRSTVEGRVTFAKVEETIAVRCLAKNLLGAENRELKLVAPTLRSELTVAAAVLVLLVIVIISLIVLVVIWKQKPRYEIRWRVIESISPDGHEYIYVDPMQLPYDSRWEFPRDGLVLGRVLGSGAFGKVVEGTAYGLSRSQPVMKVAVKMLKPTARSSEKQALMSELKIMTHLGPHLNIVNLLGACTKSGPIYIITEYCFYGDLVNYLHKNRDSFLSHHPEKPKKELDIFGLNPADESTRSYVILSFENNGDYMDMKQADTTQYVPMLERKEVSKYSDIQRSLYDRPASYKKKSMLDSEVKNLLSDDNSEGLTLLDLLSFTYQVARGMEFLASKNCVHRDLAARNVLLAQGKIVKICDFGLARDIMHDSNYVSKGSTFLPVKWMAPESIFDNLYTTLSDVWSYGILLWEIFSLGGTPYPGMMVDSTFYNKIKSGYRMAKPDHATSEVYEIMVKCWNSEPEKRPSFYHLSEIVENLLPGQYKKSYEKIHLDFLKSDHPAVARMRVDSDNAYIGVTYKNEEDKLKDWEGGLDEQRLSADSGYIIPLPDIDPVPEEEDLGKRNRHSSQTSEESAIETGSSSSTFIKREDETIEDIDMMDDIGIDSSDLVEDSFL
Sequence of Receptor tyrosine-protein kinase erbB-4 (Q15303 whole entry): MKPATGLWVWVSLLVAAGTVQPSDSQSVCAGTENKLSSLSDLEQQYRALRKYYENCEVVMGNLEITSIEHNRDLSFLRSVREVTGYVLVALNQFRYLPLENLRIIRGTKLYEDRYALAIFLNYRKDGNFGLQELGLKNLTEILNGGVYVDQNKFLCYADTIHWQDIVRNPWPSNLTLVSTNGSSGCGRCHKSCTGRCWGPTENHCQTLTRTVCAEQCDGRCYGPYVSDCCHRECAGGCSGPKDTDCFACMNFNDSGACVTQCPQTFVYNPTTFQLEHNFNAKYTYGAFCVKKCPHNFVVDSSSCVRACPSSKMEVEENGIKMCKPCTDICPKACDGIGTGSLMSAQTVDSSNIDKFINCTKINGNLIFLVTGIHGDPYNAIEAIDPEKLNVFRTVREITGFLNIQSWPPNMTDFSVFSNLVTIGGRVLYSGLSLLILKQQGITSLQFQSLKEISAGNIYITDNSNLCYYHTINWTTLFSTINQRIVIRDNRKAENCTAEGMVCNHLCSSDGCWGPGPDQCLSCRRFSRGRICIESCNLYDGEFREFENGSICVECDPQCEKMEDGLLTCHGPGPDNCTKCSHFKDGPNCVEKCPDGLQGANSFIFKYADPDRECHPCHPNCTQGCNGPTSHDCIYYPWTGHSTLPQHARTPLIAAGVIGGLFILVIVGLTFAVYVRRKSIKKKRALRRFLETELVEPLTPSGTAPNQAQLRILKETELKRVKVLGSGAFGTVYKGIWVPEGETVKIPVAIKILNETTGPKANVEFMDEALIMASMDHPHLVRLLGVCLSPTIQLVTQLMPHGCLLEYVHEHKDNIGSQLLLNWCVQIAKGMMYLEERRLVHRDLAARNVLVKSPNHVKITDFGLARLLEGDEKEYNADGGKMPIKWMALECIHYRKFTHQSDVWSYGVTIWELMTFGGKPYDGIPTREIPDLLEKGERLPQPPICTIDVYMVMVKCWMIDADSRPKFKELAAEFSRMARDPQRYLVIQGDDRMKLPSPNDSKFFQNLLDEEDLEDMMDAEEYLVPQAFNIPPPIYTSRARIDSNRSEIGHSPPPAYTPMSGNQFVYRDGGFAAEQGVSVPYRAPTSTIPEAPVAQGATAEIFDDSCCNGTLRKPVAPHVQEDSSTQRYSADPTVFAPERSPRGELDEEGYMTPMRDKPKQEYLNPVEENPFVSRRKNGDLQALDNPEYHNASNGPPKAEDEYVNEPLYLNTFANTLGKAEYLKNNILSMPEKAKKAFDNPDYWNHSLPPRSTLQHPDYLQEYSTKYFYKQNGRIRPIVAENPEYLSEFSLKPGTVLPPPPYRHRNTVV

Structure (SMILES): O=C(Nc1ccc2ncnc(Nc3ccc(Oc4cccc(F)c4)c(Cl)c3)c2c1)c1ccc(CNCCO)cc1
- Activity (BT-474 [1]): inactive
- Activity [2]: 1.3%
- inhibition [3]: Active
- GI50 (MDA-MB-468 [4]): 600 nM
- fold change (FC) (BT-474 [5]): <=6
- CLint scaled at 1 h, 100 µM (in vitro [6]): < 38 mL/min/kg
- Activity (BT-474 [7]): Active
- half-life at 1 h, 100 µM (in vitro [8]): > 2.42 h
- activity at 10 µM [9]: -70%
- Activity [10]: <=78.7%
- inhibition of growth at 10 µM [11]: ≤ 78.7%
- inhibition of growth at 10 µM (MDA-MB-468 [12]): 18.8%
- activity at 10 µM [13]: -98%
- activity at 10 µM [14]: -92%
- TGI (BT-474 [15]): Active
- Activity (BT-474 [16]): Active
- inhibition [17]: Active
- activity at 10 µM [18]: -4%
- Activity (BT-474 [19]): Active
- inhibition [20]: 3%
- pIC50 (BT-474 [21]): 6.69
- inhibition [22]: Active
- inhibition [23]: Active
- remaining at 1 h, 100 µM (in vitro [24]): 100%
- inhibition [25]: Active
- microsomal CLint at 1 h, 100 µM (in vitro [26]): < 9.6 µL/min/mg
- Activity (BT-474 [27]): Active
- pIC50 (AU565): 6.69
- inhibition [28]: Active
- pIC50 [29]: 7.92
- pIC50 (MDA-MB-231): 5.28
- Activity (BT-474 [30]): Active
- Activity (BT-474 [31]): Dose-dependent effect
- Activity (MDA-MB-468 [32]): 18%
- Activity [33]: 18%
- Activity (BT-474 [34]): 0.572 g
- Activity (BT-474 [35]): Active
- Activity (BT-474 [36]): Active
- pIC50 (MCF7 [37]): 5.25
- Activity [38]: 11.85%
- Activity (MCF7 [39]): 18%
- remaining at 1 h, 100 µM (in vitro [40]): 103%
